Assay results published in US20050226879A1, “Methods and compositions related to inhibiting nuclear envelope breakdown” (priority 2002, published 2005).
Entries after “also recorded” stand apart in the source; their conditions may differ.

Assays:
Assay type in all cases: biochemical, Xenopus laevis
[1] = tested on: nuclear envelope breakdown; test: In vitro nuclear disassembly assay (nuclei assembled in Xenopus egg extract, cyclin B added); settings: for function in the nuclear disassembly assay (inhibition of nuclear envelope breakdown): synthetic peptides 44 μM, 15 minutes prior to sperm chromatin, assessed 75 and 95 minutes post cyclin, qualitative
Excerpt: To investigate whetherNup153 participates in nuclear envelope breakdown, recombinant fragments of Nup153 were examined to determine if they exert dominant negative effects on this process in vitro. Cell-free extracts derived from Xenopus eggs were used to form synthetic nuclei around sperm chromatin. This system offers the advantage of biochemical manipulation, while being well-established to robustly recapitulate both nuclear assembly as well as nuclear disassembly in response to mitotic signals (Murray, A. W. et al., Nature 339, 280-286 (1989)). Cycloheximide was included to prevent synthesis of cyclin, thereby arresting these extracts in interphase. After nuclei were assembled, a recombinant form of stabilized cyclin B was added to initiate mitotic events. […] Detection of import cargo provided the clearest visualization of whether a nuclear envelope was intact. […] A control GST fusion protein (FIG. 7B, lanes 1 and 5) likewise had no effect (FIG. 7C, panels g and h). […] In addition, nuclear import cargo was still concentrated in nuclei under mitotic conditions, confirming both the presence and integrity of the nuclear envelope (FIG. 7C, panel o). The effect of the Nup153 zinc finger was not due to selective stability of this fragment, as equivalent levels of recombinant protein were detected in each reaction by immunoblot following the last time point (FIG. 7B, lanes 9-11).
Interphase Xenopus egg extracts were prepared using egg lysis buffer (ELB: 250 mM sucrose, 50 mM KCl, 2.5 mM MgCl2, 10 mM Hepes pH 7.4) supplemented with 1 mM dithiothreitol (DTT), 5 μg/ml cytochalasin B, aprotinin and leupeptin (10 μg/ml each), and 50 μg/ml cycloheximide (Powers, et al., In Current Protocols in Cell Biology (New York, John Wiley & Sons), pp. 11.10.11-11.11.24, (2001). Eggswere lysed by centrifugation for 15 min at 10,000 rpm. The cytoplasmic layer was collected as crude extract. For preparation of fiactionated egg extract, the crude extract was further centrifuged for 1.5 hr at 268,000 x g. The clarified supernatant was removed and further centrifuged for 1 hr at 259,000 x g to remove residual membranes. The crude extract was stored in liquid nitrogen; fractionated extract was frozen in liquid nitrogen and then stored at −80° C.
(§1) Demembranated condensed sperm chromatin was isolated from Xenopus testes as described previously (Powers, et al., In Current Protocols in Cell Biology (New York, John Wiley & Sons), pp. 11.10.11-11.11.24, (2001). For the assembly of nuclei, an ATP-generating system was added to 28 μl of crude egg extract. Sperm chromatin was added and nuclei were allowed to assemble by incubation at room temperature. After assembly for 1 hr, import substrate (NLS-HSA-RITC, prepared as in (Powers, et al., In Current Protocols in Cell Biology (New York, John Wiley & Sons), pp. 11.10.11-11.11.24, (2001)) was added to the reaction and incubated for another 30 min to assess the presence of functional pores and membrane integrity. Recombinant cyclin B with a deletion that confers stability was then added to the nuclei to initiate mitotic events (Murray, A. W., et al., Nature 339, 280-286 (1989). The role of cyclin synthesis and degradation in the control of maturation promoting factor activity Nature 339, 280-286, 1989). Samples were taken from the reaction at the indicated time points to monitor by fluorescence microscopy using DHCC (Calbiochem, San Diego, Calif.) to monitor membranes and Hoechst 33258 (Calbiochem) to monitor DNA. To examine the effects of protein fragments and antibodies on nuclear disassembly, the reagent in question was incubated with crude extract for 15 minutes at room temperature prior to the addition of sperm chromatin and energy mix. As noted, for protein fragments either 3 μg (corresponding to final concentrations of 3.3 μM, 1.7 μM, and 1.5 μM for GST, GST-N, and GST-Z respectively) or 4 μg (corresponding to final concentrations of 4.4 μM and 2 μM for GST and GST-Z respectively) was added. […]

[2] = tested on: nuclear assembly and NLS-mediated import; test: Nuclear assembly and NLS import in egg extract (interphase); settings: ARF peptide 22 μM present
Procedure: as §1, with “DNA.” for “DNA. To examine the effects of protein fragments and antibodies on nuclear disassembly, the reagent in question was incubated with crude extract for 15 minutes at room temperature prior to the addition of sperm chromatin and energy mix. As noted, for protein fragments either 3 μg (corresponding to final concentrations of 3.3 μM, 1.7 μM, and 1.5 μM for GST, GST-N, and GST-Z respectively) or 4 μg (corresponding to final concentrations of 4.4 μM and 2 μM for GST and GST-Z respectively) was added.”

[3] = tested on: nuclear envelope breakdown; test: In vitro nuclear disassembly assay (nuclei assembled in Xenopus egg extract, cyclin B added); settings: peptide added after nuclear assembly has taken place

C[C@H]1CCC/C=C/[C@@H]2C[C@H](O)C[C@H]2[C@H](O)/C=C/C(=O)O1 [Brefeldin A]
effect on nuclear envelope breakdown ([1]; Brefeldin A 0.6 μg/ml final, added 15 min prior to assembly): interferes with nuclear envelope breakdown; also recorded: very clear interference of nuclear envelope breakdown

CEQTYRVCGGGS (CEQTLYRVCGGGS)
function in the nuclear disassembly assay (inhibition of nuclear envelope breakdown) [1]: not inhibitory

GNMFANLFKGLFGKKE [ARF peptide]
nuclear assembly [2]: proceeded
nuclei remaining intact ([1]; ARF peptide 22 μM, 75 minutes after cyclin addition): 90%

(C)ESGELKPEDDVTVGPAQK (CESGELKPEDDVTVGPAQK; N-terminal cysteine) [immunogenic peptide]
protective effect of anti-β-COP antibodies on inclusion of the peptide ([1]; anti-β-COP 5 μg incubated with β-COP peptide 5 μg for 15 min before addition): blocked

CNNTRSPYCGGGS
function in the nuclear disassembly assay (inhibition of nuclear envelope breakdown) [1]: not inhibitory

CGEHVRPSCGGGS
function in the nuclear disassembly assay (inhibition of nuclear envelope breakdown) [1]: did not have activity

EKKGFLGKFLNAF MNG (EKKGFLGKFLNAFMNG) [ARF 17-2]
effect on nuclear disassembly ([1]; ARF peptides 22 μM, 75 minutes after cyclin addition): no significant affect

CTHPFTHECGGGS [ZNFPHD1]
inhibition of nuclear envelope breakdown ([1]; synthetic form as well as displayed form): capable of inhibiting nuclear envelope breakdown
function in the nuclear disassembly assay (inhibition of nuclear envelope breakdown) [1]: inhibitory
function in the nuclear disassembly assay [3]: not inhibitory
